Publication PMC11311842, “Radiosynthesis and Preclinical Evaluation of ^18F-Labeled Estradiol Derivatives with Different Lipophilicity for PET Imaging of Breast Cancer” (Cancers, 2024)
Like-named read-outs stand apart in the source and are kept apart here. Values belong to the molecule of their own block, whether it stands above or below them.

Key:
[1] = tested on: MCF-7 (ER+) breast cancer cells; test: Competitive cellular uptake with ^18F-TA-Glyco-EE as radioligand; type: cell-based; details: Homo sapiens, MCF7, 1 h, read-out: IC50 for inhibition of cellular uptake of ^18F-TA-Glyco-EE
Experimental: Competitive uptake experiments were performed using ^18F-TA-Glyco-EE as a radioligand. One day prior to the experiment, MCF-7 cells were seeded in 96-well plates (50,000 cells/well). The cell medium was removed, and the respective estradiol derivative, as a competitor of the radioligand, was added in concentrations from 0 to 500 µM in 90 µL cell culture medium each. After ^18F-TA Glyco-EE (10 µL, approx. 1 MBq/well) was added, the incubation proceeded for 60 min at 37 °C. The plate was set on ice and washed with ice-cold PBS, followed by cell lysis and detachment with NaOH (0.1 M, 200 µL, 37 °C). The cells were transferred into counting tubes, and the radioactivity was measured using a γ-counter (Wallac Wizard, PerkinElmer, Waltham, MA, USA). One single experiment was performed in triplicate.

[2] = cited from earlier work
MCF-7 and T47D tumors = details: cited from earlier work
[3] = tested on: MCF-7 tumor-bearing nude mice; set-up: method as in PMID 29466767; details: 60 min p.i., cited from earlier work
[4] = Stability in human serum and plasma in vitro (radio-HPLC); type: in vitro ADME; details: 37 °C; for Stability in human serum and plasma (in words): over 120 min, radio-HPLC; for Stability in Human Serum or Plasma: over 2 h, same for serum and plasma
Experimental: An aliquot of the formulated tracer solution (40 µL containing approx. 10 MBq in 0.9% NaCl) was incubated with 200 µL of human plasma (Hölzel Diagnostika Handels GmbH, from CosmoBio USA, Carlsbad, CA, USA) or human serum (Biochrom GmbH, Merck KGaA, Darmstadt, Germany), respectively, at 37 °C. After various time points (5–120 min), aliquots (30 µL) were taken and quenched in methanol or 10% TFA (30 µL). The samples were centrifuged for 3 min, and subsequently the supernatants were analyzed by radio-HPLC (Chromolith RP-18e, 100 × 4.6 mm, 10–100% acetonitrile (with 0.1% TFA) in water (with 0.1% TFA) over 5 min, 4 mL/min).

ER+ MCF-7 cells = test: Cellular uptake assay in ER+ cells; type: cell-based, human
Experimental: One day prior to the experiment, MCF-7 and MDA-MB-231 cells were seeded in 24-well plates (350,000 cells/well). The cells were washed once with cell medium. The cells were incubated with the respective radiotracer in cell medium (510 µL) for 10, 20, 30, 60, 90, 120 min at 37 °C in the absence and presence of estradiol (E2, final concentration of 72 µM). After incubation, the plates were set on ice and washed with ice-cold PBS twice, following cell lysis and detachment with NaOH (0.1 M, 750 µL, 37 °C). The cells were transferred to counting tubes, and the radioactivity was measured using a γ-counter (Wallac Wizard, PerkinElmer, Waltham, MA, USA). The protein concentration of each well was determined in duplicate using Bradford reagent (Bio-Rad Laboratories GmbH, Feldkirchen, Germany). The cellular uptake assay was performed in 2–4 independent experiments, each performed in quadruplicate for each time point.

[5] = Determination of logD7.4 (n-octanol/PBS); type: physicochemical; details: n-octanol/PBS pH 7.4; mean ± SD, three independent experiments
Experimental: For the determination of the octanol–water coefficient, an aliquot of the radiotracer was added to PBS (500 µL, pH 7.4) and n-octanol (500 µL) in an Eppendorf tube. The mixture was vortexed and subsequently centrifuged, each for 1 min. Three samples (each 100 µL) were taken from both the PBS and the n-octanol layer and measured using a γ-counter (Wallac Wizard, PerkinElmer, Waltham, MA, USA). The logD7.4 was expressed as log(cpmoctanol/cpmPBS) and reported as mean ± SD. The determination of logD7.4 was performed in three independent experiments, each performed in triplicate.

[6] = Plasma protein binding (MicroSpin G-50 columns); type: in vitro ADME; details: human plasma, 10 min, 37 °C
Experimental: MicroSPin G-50 columns (Cytiva, Merck KGaA, Darmstadt, Germany) were preconditioned according to the manufacturer’s protocol and the experiment was performed as follows. In brief, an aliquot of the tracer (1 µL, approx. 250 kBq) was added to NaCl (0.9%, 200 µL, negative control) or human plasma (200 µL) and incubated for 10 min at 37 °C. A sample from the plasma or negative control (40 µL) was carefully added to the resin, and the column was placed in an Eppendorf tube. After centrifugation (2 min, 2000× g), the eluate and the resin were collected separately. Both were measured for radioactivity using a γ-counter (Wallac Wizard, PerkinElmer, Waltham, MA, USA), and the radioactivity eluted from the resin was calculated as a percentage of the total amount of radioactivity. The determination of plasma protein binding was performed twice in duplicate.

[7] = Hydrolysis of the Si-^18F bond observed on formulation; type: physicochemical; details: slightly acidic conditions (HBSS pH 6.4)
Experimental: Aiming at a more lipophilic derivatization of EE for comparison to the above-described hydrophilic derivatization, the well-known isotopic ^19F-^18F exchange reaction according to Schirrmacher et al. was applied to the radiosynthesis of ^18F-SiFA-EE, starting from ^19F-SiFA-EE. After cartridge purification and reformulation in HBSS (pH 6.4), ^18F-SiFA-EE was obtained in an AY of 44% (referred to [^18F]fluoride) after a total synthesis time of 27 min, with an Am of up to 28 GBq/µmol. It should be noted here that the obtained Am of ^18F-SiFA-EE was strongly dependent on the starting activity.

- IC50 ([1]; MCF-7 cells, 60 min, 37 °C, single experiment in triplicate): 56 µM
Structure (SMILES): C[C@]12CC[C@@H]3c4ccc(O)cc4CC[C@H]3[C@@H]1CC[C@@H]2O [E2, 17β-estradiol, reference compound]

Structure (SMILES): C#C[C@]1(O)CC[C@H]2[C@@H]3CCc4cc(O)ccc4[C@H]3CC[C@@]21C [EE, 17α-ethinylestradiol]
- calculated logKow [2]: 3.7

Structure (SMILES): CC12CCC3c4ccc(O)cc4CCC3C1CC([18F])C2O (stereo not drawn) [FES, 16α-[^18F]fluoroestradiol]
- logD7.4 [2]: 2.5
- Uptake in MCF-7 and T47D tumors (MCF-7 and T47D tumors): < 0.4 %ID/g

Structure (SMILES): C[C@]12CC[C@@H]3c4ccc(O)cc4CC[C@H]3[C@@H]1CC[C@@]2(O)c1cn(CCOCCOCCOCCF)nn1 [PEG-EE]
- IC50 [1]: 1270 µM

Structure (SMILES): CC(=O)OC1C(CF)OC(n2cc(C3(O)CCC4C5CCc6cc(O)ccc6C5CCC43C)nn2)C(OC(C)=O)C1OC(C)=O (stereo not shown) [TA-Glyco-EE]
- IC50 [1]: 194 µM

Structure (SMILES): CC12CCC3c4ccc(O)cc4CCC3C1CCC2(O)c1cn(CCOCCOCC[18F])nn1 (stereo not shown) [^18F-FETE]
- Tumor uptake ([3]; MCF-7 tumor-bearing nude mice): 4 %ID/g
- Tumor uptake after fulvestrant pretreatment ([3]; MCF-7 xenografts): 1.5 %ID/g

- Stability in Human Serum or Plasma [4]: >99% over 2 h ^2
- logD7.4 [5]: 1.7 ± 0.1
Structure (SMILES): CC12CCC3c4ccc(O)cc4CCC3C1CCC2(O)c1cn(C2OC(C[18F])C(O)C(O)C2O)nn1 (stereo not shown) [^18F-Glyco-EE]
- Stability in human serum and plasma (in words) [4]: stable in both plasma and serum over 120 min
- Total cellular uptake in MCF-7 cells (ER+ MCF-7 cells; after 90 min, 37 °C, absence of E2): 7 %/mg

- Stability in Human Serum or Plasma [4]: >99% over 2 h ^2
- Plasma Protein Binding [6]: 71 ± 4%
- logD7.4 [5]: 2.2 ± 0.1
Structure (SMILES): CC12CCC3c4ccc(O)cc4CCC3C1CCC2(O)c1cn(CCOCCOCCOCC[18F])nn1 (stereo not shown) [^18F-PEG-EE]
- Stability in human serum and plasma (in words) [4]: stable in both plasma and serum over 120 min
- Cellular uptake relative to ^18F-Glyco-EE (ER+ MCF-7 cells; ER+ MCF-7 cells): four times higher
- Cellular uptake in MCF-7 cells (ER+ MCF-7 cells; after 60 min, 37 °C, absence of E2): 27 %/mg

Structure (SMILES): CC12CCC3c4ccc(O)cc4CCC3C1CCC2(O)c1cn(Cc2ccc([Si]([18F])(C(C)(C)C)C(C)(C)C)cc2)nn1 (stereo not shown) [^18F-SiFA-EE]
- Hydrolytic stability of the Si-^18F bond [7]: highly amenable to hydrolysis of the Si-^18F bond
